Data taken from paper PMC3348334 (Bioorganic & medicinal chemistry letters, 2012).

System: COX
Assay: COX activity inhibition at single concentration
Type: biochemical, human
Settings: at 100 μM

O=C(O)c1cccc(Nc2ccc([N+](=O)[O-])c3ccccc23)c1 [Compound 2, 3-((4-nitronaphthalen-1-yl)amino)benzoic acid]
inhibition of COX activity: no significant inhibition
